# Data published in publication PMC5556071, “ATR inhibition facilitates targeting of leukemia dependence on convergent nucleotide biosynthetic pathways” (Nature Communications, 2017).
# What was measured:
# [1] = system: CEM T-ALL cells; assay: ssDNA (F7-26) and pH2A.X flow cytometry; assay type: cell-based, human
# Procedure: Treated CEM T-ALL cells were fixed with ice-cold methanol:PBS (6:1 v/v). Staining with F7-26 ssDNA monoclonal antibody (mouse) was performed according to manufacturer’s instructions (EMD Millipore, #MAB3299) followed by secondary antibody IgM-PE. Subsequently, cells were stained with the phospho-Histone H2A.X (pS139 H2A.X) specific antibody conjugated to FITC (EMD Millipore, #05-636) and DAPI, and then analyzed by flow cytometry (a detailed description is available in the Supplementary Information).
# (525→383). The peak areas for each drug (precursor→fragment ion transitions) at predetermined retention times were recorded using the software supplied by the instrument manufacturer (Agilent MassHunter).
# Cell cycle histograms. Cells were plated at a density of 0.5 x 10^6 cells/mL in respective media or drug treated media. […]
# Cell cycle kinetics and cell cycle progression by intracellular detection of DNA-incorporated 5-ethynyl-2-deoxyuridine (EdU). […] The total DNA content was assessed by staining the samples with FxCycle-Violet (Invitrogen, #F10347) at 1 µg/mL final concentration in PBS containing 2% FBS. […] Total DNA content was assessed by staining with FxCycle-Violet (Invitrogen) at 1 µg/mL final concentration in PBS containing 2% FBS. pH2A.X staining. […]
# Measurement of ssDNA levels using the F7-26 monoclonal antibody. […] Cells were washed with PBS and stained with 100 µL of fluorescence-conjugated […]
# [2] = system: CEM T-ALL cells; assay: Cell cycle kinetics by EdU incorporation (flow cytometry) after release from Palbociclib G1 arrest; assay type: cell-based, human; details: for S1 / S2 / S3: synchronous CEM, 12 h after G1 release
# Procedure: CEM T-ALL cells were synchronized in G1 phase, and then treated as indicated. Cells were pulsed with EdU 1 h before collection at different time points. Cells were fixed 4% paraformaldehyde, permeabilized with perm/wash reagent (Invitrogen), stained with Azide-AF647 (using click-chemistry, Invitrogen; Click-iT EdU Flow cytometry kit, #C10634) and FxCycle-Violet (Invitrogen), and then analyzed flow cytometry (a detailed description is available in the Supplementary Information).
# Cell cycle synchronization. Cells were treated with a CDK4/6 inhibitor, Pablociclib or PD-0332991 (Selleckchem, S1116) for 18 h to synchronize them in the G1 phase. Subsequently, cells were washed twice with PBS containing 2% FBS (Omega Scientific) and released into fresh media. […]
# 0.5 ml of propidium iodide (Calbiochem, #P3566, 1 µg/mL) solution containing Ribonuclease A and 0.3% Triton-X 100. The samples were protected from light before acquisition by flow cytometry.
# Cell cycle kinetics and cell cycle progression by intracellular detection of DNA-incorporated 5-ethynyl-2-deoxyuridine (EdU). CEM T-ALL cells were plated at a density of 0.5 x 10^6 cells/mL. Cells were pulsed with 10 µM EdU (Invitrogen) for 1 h, washed twice with PBS, and released in fresh media containing 5 µM deoxyribonucleosides, with and without drugs. Cells were collected at different time points following release in fresh media, and then fixed with 4% paraformaldehyde and permeabilized using saponin perm/wash reagent (Invitrogen). Cells were then stained with azide-Alexa Fluor 647 by Click reaction according to manufacturer’s protocol (Invitrogen; Click-iT EdU Flow cytometry kit, #C10634). The total DNA content was assessed by staining the samples with FxCycle-Violet (Invitrogen, #F10347) at 1 µg/mL final concentration in PBS containing 2% FBS. To measure the cell cycle progression of a synchronous population of cells, cells were first arrested in the G1 phase following treatment with 1 µM Palbociclib for 18 h, then washed and released in fresh media supplemented with drugs. Before collecting and fixing the cells at different time points, the cells were pulse-labeled with 10 µM EdU for 1 h, and then labeled with azide-Alexa Fluor 647 (Invitrogen; Click-iT EdU Flow cytometry kit). Total DNA content was assessed by staining with FxCycle-Violet (Invitrogen) at 1 µg/mL final concentration in PBS containing 2% FBS. pH2A.X staining. Cells were harvested, fixed and permeabilized with cytofix/cytoperm (BD biosciences, #554722) for 15 min on ice protected from light. Cells were washed, then resuspended in 100 µL 1X Perm/wash buffer (BD Sciences) and incubated for 15 min on ice. The cells were washed, then resuspended in 50 µL with phospho-Histone H2A.X (Ser139) antibody conjugated to fluorochrome FITC (EMD Millipore, #05-636, 1:800 dilutions in perm/wash) for 20 min in the dark at RT. Subsequently, cells were washed and stained with 0.5 mL of DAPI (Invitrogen, #D1306) for DNA content (1 µg/mL in 2% FBS in PBS) before data […]
# Measurement of ssDNA levels using the F7-26 monoclonal antibody. Cells were harvested and fixed with ice-cold methanol:PBS (6:1 v/v) for 24h. Staining with F7-26 monoclonal mouse antibody was performed according to manufacturer’s instructions (EMD Millipore, #MAB3299). Fixed cells were resuspended in 250 µL of formamide and heated in a water bath at 75 °C for 10 min. Cells were then allowed to equilibrate to room temperature and then washed with 2 mL of 1% non-fat dry milk in PBS for 15 min. Subsequently, cells were resuspended in 100 µL of anti-ssDNA Mab F7-26 (EMD Millipore, 1:10 in 5% FBS in PBS) and incubated for 45 min at room temperature. Cells were washed with PBS and stained with 100 µL of fluorescence-conjugated
# [3] = system: Jurkat cells; assay: Cell cycle histograms (propidium iodide flow cytometry); assay type: cell-based, human; details: dCKi 1 µM, 24 h
# Procedure: Cell cycle histograms. Cells were plated at a density of 0.5 x 10^6 cells/mL in respective media or drug treated
# media. Following 24 h incubation, cells were harvested and washed twice with PBS twice before staining with
# 0.5 ml of propidium iodide (Calbiochem, #P3566, 1 µg/mL) solution containing Ribonuclease A and 0.3%
# Triton-X 100. The samples were protected from light before acquisition by flow cytometry. […]
# [4] = system: ATR; design: method as in earlier work; details: ref #35, Fokas et al., 2014; cited from earlier work
# [5] = Suppl. Fig. 5e, BCX-1777 100 nM
Structure (SMILES),increase of the percentage of ssDNA+ cells ([1]; 0.5 h after treatment),increase of the percentage of ssDNA+ cells ([1]; 4 h time point),"percentage of cell population in S2* (late S-phase) ([2]; 12 h following release from G1 arrest, DI-82 1 µM) [%]",S1 ([2]; + dNTP (10 µM)) [%],S2 ([2]; + dNTP (10 µM)) [%],S3 ([2]; + dNTP (10 µM)) [%],S1 ([2]; – dNTP) [%],S2 ([2]; – dNTP) [%],S3 ([2]; – dNTP) [%],"cells in G2/M ([3]; Suppl. Fig. 4e, dCF 10 µM) [%]","cells in S phase ([3]; Suppl. Fig. 4e, dCF 10 µM) [%]","cells in G2/M [3, 5] [%]","cells in S phase [3, 5] [%]",fewer cells entered S2 compared to untreated cells ([2]; 12 h after release from G1 arrest) [%],cellular selectivity for ATR compared to other members of the PIKK family (including ATM and DNA-PK) [4] [fold]
NC(=S)N/N=C/c1ncccc1N [3-AP],more than two-fold,greater than three-fold,–,–,–,–,–,–,–,–,–,–,–,–,–
COc1ccc(-c2nc([C@@H](C)Sc3nc(N)cc(N)n3)c(C)s2)cc1OCCNS(C)(=O)=O [dCKi],–,–,6.1,42,42,14,66,22,8.4,17,30,14,32,–,–
CNCc1ccc(-c2cc(-c3nc(-c4ccc(S(=O)(=O)C(C)C)cc4)cnc3N)on2)cc1 [VE-822],–,–,–,43,52,1.5,58,37,1,–,–,–,–,16,> 100
